From ChEMBL document CHEMBL1201862, “PubChem BioAssay data set” (2004)
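Dose response: 5 concentrations. Exposure: 48 h. Format: 96-well plates. Endpoint: linear interpolation; highest concentration if not reached. GI50 = concentration required for 50% inhibition of growth.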 Calls of active or inactive are those of the source. No stated cut-off is given here; in the data, active = GI50 up to about 1.1 µM and inactive = higher.

Key:
Assay in all cases: NCI anticancer screen, dose series, 48 h
M14 = system: M14
MOLT-4 = system: MOLT-4
NCI/ADR-RES = system: NCI/ADR-RES
SK-MEL-28 = system: SK-MEL-28
Malme-3M = system: Malme-3M
NCI-H23 = system: NCI-H23
HCC 2998 = system: HCC 2998
MDA-MB-435 = system: MDA-MB-435
UACC-62 = system: UACC-62
SN12C = system: SN12C
OVCAR-5 = system: OVCAR-5
DU-145 = system: DU-145
SK-MEL-2 = system: SK-MEL-2
HOP-92 = system: HOP-92
NCI-H522 = system: NCI-H522
786-0 = system: 786-0
HCT-15 = system: HCT-15
COLO 205 = system: COLO 205
CAKI-1 = system: CAKI-1
OVCAR-8 = system: OVCAR-8

SMILES | GI50 (M14) | GI50 (MOLT-4) | GI50 (NCI/ADR-RES) | GI50 (SK-MEL-28) | GI50 (Malme-3M) | GI50 (NCI-H23) | GI50 (HCC 2998) | GI50 (MDA-MB-435) | GI50 (UACC-62) | GI50 (SN12C) | GI50 (OVCAR-5) | GI50 (DU-145) | GI50 (SK-MEL-2) | GI50 (HOP-92) | GI50 (NCI-H522) | GI50 (786-0) | GI50 (HCT-15) [µM] | GI50 (COLO 205) | GI50 (CAKI-1) | GI50 (OVCAR-8)
CCCCCCCCCCCCCCCCCCOCC(O)COP(=O)(O)OCC1OC(n2cc(F)c(=O)[nH]c2=O)CC1O (stereo not given) | 2.96 µM (inactive) | 3.02 µM (inactive) | 2.05 µM (inactive) | 14.1 µM (inactive) | 14.4 µM (inactive) | 2.97 µM (inactive) | 0.0467 µM (active) | 17.7 µM (inactive) | 0.579 µM (active) | 5.81 µM (inactive) | 12.5 µM (inactive) | 1.15 µM (inactive) | 21.4 µM (inactive) | 4.02 µM (inactive) | 11.9 µM (inactive) | 1.22 µM (inactive) | 10.8 | 5.15 µM (inactive) | 2.16 µM (inactive) | 1.64 µM (inactive)
COc1ccc(C2NC3=C(CCCC3)C3(C#N)C(=O)N=C(N)C23C#N)cc1 (stereo not given) | > 100 µM (inactive) | > 100 µM (inactive) | > 100 µM (inactive) | > 100 µM (inactive) | > 100 µM (inactive) | > 100 µM (inactive) | > 100 µM (inactive) | > 100 µM (inactive) | > 100 µM (inactive) | > 100 µM (inactive) | > 100 µM (inactive) | > 100 µM (inactive) | > 100 µM (inactive) | > 100 µM (inactive) | > 100 µM (inactive) | > 100 µM (inactive) | > 100 | > 100 µM (inactive) | > 100 µM (inactive) | > 100 µM (inactive)
NNC(=O)CSc1nc2ccccc2c(=O)n1N | > 100 µM (inactive) | > 100 µM (inactive) | > 100 µM (inactive) | > 100 µM (inactive) | 46.7 µM (inactive) | 29.8 µM (inactive) | > 100 µM (inactive) | > 100 µM (inactive) | 27.6 µM (inactive) | 37.8 µM (inactive) | > 100 µM (inactive) | > 100 µM (inactive) | 17.6 µM (inactive) | 22.5 µM (inactive) | 58.7 µM (inactive) | 19 µM (inactive) | > 100 | > 100 µM (inactive) | 32.8 µM (inactive) | 31.9 µM (inactive)
Cc1cc2c(O)c(c1)CN(CC(=O)O)Cc1cc(C)cc(c1O)CN(CC(=O)O)Cc1cc(C)cc(c1O)CN(CC(=O)O)C2 | > 100 µM (inactive) | > 100 µM (inactive) | > 100 µM (inactive) | > 100 µM (inactive) | > 100 µM (inactive) | > 100 µM (inactive) | > 100 µM (inactive) | > 100 µM (inactive) | > 100 µM (inactive) | > 100 µM (inactive) | > 100 µM (inactive) | > 100 µM (inactive) | > 100 µM (inactive) | 64.4 µM (inactive) | > 100 µM (inactive) | > 100 µM (inactive) | > 100 | > 100 µM (inactive) | > 100 µM (inactive) | > 100 µM (inactive)
C=C(Cl)[C@@](Cl)(CBr)CC[C@@H](Br)C(C)(C)Cl | 10.8 µM (inactive) | 22.9 µM (inactive) | 0.522 µM (active) | 0.394 µM (active) | 21.7 µM (inactive) | 8.02 µM (inactive) | 0.488 µM (active) | 1.4 µM (inactive) | 0.745 µM (active) | 2.11 µM (inactive) | 1.59 µM (inactive) | 0.664 µM (active) | 0.458 µM (active) | 0.292 µM (active) | 22.4 µM (inactive) | 0.0603 µM (active) | 0.759 | 0.5 µM (active) | 0.467 µM (active) | 0.466 µM (active)
COC(=O)[C@@H]1C[C@H]([Se]c2ccccc2)CN1S(=O)(=O)c1ccc(C)cc1 | > 100 µM (inactive) | 35.7 µM (inactive) | 34.1 µM (inactive) | 76.2 µM (inactive) | > 100 µM (inactive) | > 100 µM (inactive) | > 100 µM (inactive) | 47.1 µM (inactive) | > 100 µM (inactive) | > 100 µM (inactive) | > 100 µM (inactive) | > 100 µM (inactive) | 21.4 µM (inactive) | > 100 µM (inactive) | 38.9 µM (inactive) | > 100 µM (inactive) | > 100 | 61.5 µM (inactive) | > 100 µM (inactive) | > 100 µM (inactive)
CCN(CC)c1ccc(/C=C(\C#N)c2nc(N)nc(N3N=C(C)CC3(C)C)n2)cc1 | 19.2 µM (inactive) | 10.7 µM (inactive) | 15.8 µM (inactive) | 36.1 µM (inactive) | 18.2 µM (inactive) | 27.5 µM (inactive) | 30.1 µM (inactive) | 21.1 µM (inactive) | 30.3 µM (inactive) | 27.3 µM (inactive) | 26.7 µM (inactive) | 9.64 µM (inactive) | 15.6 µM (inactive) | 6.97 µM (inactive) | 16.9 µM (inactive) | 13.4 µM (inactive) | > 59.3 | 29.6 µM (inactive) | 15.1 µM (inactive) | 10.6 µM (inactive)
Cc1c2cccc(Sc3ccccc3)c2c2c3c(cccc13)[S+](c1ccccc1)C2 (stereo not given) | 2.08 µM (inactive) | 1.65 µM (inactive) | 28.6 µM (inactive) | 2.58 µM (inactive) | 1.8 µM (inactive) | 1.82 µM (inactive) | 1.66 µM (inactive) | 1.75 µM (inactive) | 1.66 µM (inactive) | 2.24 µM (inactive) | 3.03 µM (inactive) | 3.78 µM (inactive) | 1.5 µM (inactive) | 2.03 µM (inactive) | 0.684 µM (active) | 2.98 µM (inactive) | 10.4 | 0.923 µM (active) | 3.19 µM (inactive) | 2.67 µM (inactive)
O=C1CNc2cc(N3CCN(c4cccc(C(F)(F)F)c4)CC3)ccc2N1 | 18 µM (inactive) | 28.7 µM (inactive) | 34.6 µM (inactive) | 68.5 µM (inactive) | 14.2 µM (inactive) | 39.9 µM (inactive) | 68.1 µM (inactive) | 95.5 µM (inactive) | 35.1 µM (inactive) | > 100 µM (inactive) | 68.5 µM (inactive) | > 100 µM (inactive) | 0.755 µM (active) | > 100 µM (inactive) | 13.9 µM (inactive) | > 100 µM (inactive) | 38.9 | 27.5 µM (inactive) | > 100 µM (inactive) | 83.2 µM (inactive)
CC(C)=CCc1c2c(c3occ(-c4ccc(O)c(O)c4)c(=O)c3c1O)C=CC(C)(C)O2 [POMIFERIN] | 1.68 µM (inactive) | 0.553 µM (active) | 2.18 µM (inactive) | 2.51 µM (inactive) | 1.14 µM (inactive) | 1.57 µM (inactive) | 1.22 µM (inactive) | 1.75 µM (inactive) | 3.85 µM (inactive) | 1.58 µM (inactive) | 7.82 µM (inactive) | 3.47 µM (inactive) | 2.6 µM (inactive) | 2.07 µM (inactive) | 0.188 µM (active) | 1.51 µM (inactive) | 1.91 | 1.78 µM (inactive) | 1.55 µM (inactive) | 2.81 µM (inactive)
C[C@H](CCC(=O)O)[C@H]1CC[C@H]2[C@@H]3[C@@H](O)C[C@@H]4C[C@H](O)CC[C@]4(C)[C@H]3CC[C@]12C [URSODIOL] | > 100 µM (inactive) | 47.4 µM (inactive) | > 100 µM (inactive) | > 100 µM (inactive) | > 100 µM (inactive) | > 100 µM (inactive) | > 100 µM (inactive) | > 100 µM (inactive) | > 100 µM (inactive) | > 100 µM (inactive) | > 100 µM (inactive) | > 100 µM (inactive) | > 100 µM (inactive) | > 100 µM (inactive) | > 100 µM (inactive) | > 100 µM (inactive) | > 100 | > 100 µM (inactive) | > 100 µM (inactive) | > 100 µM (inactive)
